What was measured:
Interleukin-23 receptor [1] = biological target: T1, Interleukin-23 receptor (Homo sapiens, UniProt Q5VWK5); test: Inhibition of interleukin-23 binding to human interleukin-23 receptor incubated for 2 hrs by competitive binding ELISA
T1 sequence (Q5VWK5 whole entry): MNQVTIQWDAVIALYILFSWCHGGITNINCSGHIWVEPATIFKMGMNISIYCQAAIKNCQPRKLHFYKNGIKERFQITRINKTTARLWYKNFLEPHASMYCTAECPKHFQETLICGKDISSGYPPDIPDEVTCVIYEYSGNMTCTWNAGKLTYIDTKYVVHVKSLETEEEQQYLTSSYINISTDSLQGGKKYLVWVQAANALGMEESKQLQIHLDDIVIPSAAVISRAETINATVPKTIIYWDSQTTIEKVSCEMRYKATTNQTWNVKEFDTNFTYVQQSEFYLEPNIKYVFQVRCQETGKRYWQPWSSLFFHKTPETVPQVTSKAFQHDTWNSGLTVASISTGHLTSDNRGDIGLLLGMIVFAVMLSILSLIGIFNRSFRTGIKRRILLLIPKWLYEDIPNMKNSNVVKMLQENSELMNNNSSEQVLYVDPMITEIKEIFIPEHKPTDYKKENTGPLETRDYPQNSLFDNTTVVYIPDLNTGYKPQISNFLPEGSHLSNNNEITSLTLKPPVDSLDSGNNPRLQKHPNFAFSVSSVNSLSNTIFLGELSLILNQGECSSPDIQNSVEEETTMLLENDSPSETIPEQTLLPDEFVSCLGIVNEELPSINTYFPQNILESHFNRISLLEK

Interleukin-23 receptor [2] = biological target: T1, Interleukin-23 receptor; test: Inhibition of interleukin-23 receptor in human DB cells assessed as reduction in IL-23-stimulated STAT3 phosphorylation incubated for 30 mins by HTRF assay; format: cell-based
[3] = Inhibition of interleukin-23 binding to rat interleukin-23 receptor incubated for 2 hrs by competitive binding ELISA
[4] = Half life in simulated intestinal fluid at 20 uM by LC-MS/MS analysis; format: ADME

| SMILES | IC50 (Interleukin-23 receptor [1]) [nM] | IC50 (Interleukin-23 receptor [2]) [nM] | IC50 [3] [nM] | half-life at 20 µM [4] [h] |
| --- | --- | --- | --- | --- |
| COc1ccc(C[C@H](NC(=O)[C@@H](NC(=O)[C@H](CCC(N)=O)NC(=O)[C@H](Cc2c[nH]c3ccccc23)NC(=O)[C@@H](NC(=O)[C@H](CCC(N)=O)NC(=O)[C@@H](NC(=O)CCCC(=O)O)C(C)(C)S)[C@@H](C)O)C(C)(C)S)C(=O)N[C@@H](Cc2ccc3ccccc3c2)C(=O)N[C@@](C)(CCCCN)C(=O)N[C@@H](CCCCNC(C)=O)C(=O)N[C@@H](CC(N)=O)C(=O)NCC(N)=O)cc1 | 25 to 100 | 10 to 25 | 25 to 100 | – |
| CC(=O)N[C@H]1CCSC[C@@H](C(=O)N[C@@H](Cc2ccc(O)cc2)C(=O)N[C@@H](Cc2c[nH]c3ccccc23)C(=O)N[C@@](C)(CC(C)C)C(=O)N[C@@H](CCC(=O)O)C(=O)N[C@@H](CC(N)=O)C(=O)NCC(N)=O)NC(=O)[C@H](CCC(N)=O)NC(=O)[C@H](Cc2c[nH]c3ccccc23)NC(=O)[C@H]([C@@H](C)O)NC(=O)[C@H](CCC(N)=O)NC1=O | 10 to 25 | < 10 | 25 to 100 | < 1 |
| CC(=O)NCCCC[C@H](NC(=O)[C@](C)(CCCCN)NC(=O)[C@H](Cc1ccc2ccccc2c1)NC(=O)[C@H](Cc1ccc(OCCN)cc1)NC(=O)[C@@H](NC(=O)[C@H](CCC(N)=O)NC(=O)[C@H](Cc1c[nH]c2ccccc12)NC(=O)[C@@H](NC(=O)[C@H](CCC(N)=O)NC(=O)[C@@H](NC(C)=O)C(C)(C)S)[C@@H](C)O)C(C)(C)S)C(=O)N[C@@H](CC(N)=O)C(=O)NCC(N)=O | < 10 | < 10 | 25 to 100 | – |
| CC(=O)NCCCC[C@](C)(NC(=O)[C@H](Cc1ccc2ccccc2c1)NC(=O)[C@H](Cc1ccc(OCCNC(C)=O)cc1)NC(=O)[C@@H]1CSCC[C@H](NC(C)=O)C(=O)N[C@@H](CCC(N)=O)C(=O)N[C@@H]([C@@H](C)O)C(=O)N[C@@H](Cc2c[nH]c3ccccc23)C(=O)N[C@@H](CCC(N)=O)C(=O)N1)C(=O)N[C@@H](CCC(=O)O)C(=O)N[C@@H](CC(N)=O)C(=O)N[C@@H](CC(N)=O)C(N)=O | < 10 | < 10 | < 10 | – |
| CC(=O)N[C@H](C(=O)N[C@@H](C)C(=O)N[C@@H](CC(=O)O)C(=O)N[C@@H](Cc1c[nH]c2ccccc12)C(=O)N[C@H](C(=O)N[C@@H](CS)C(=O)N[C@@H](Cc1ccc(O)cc1)C(=O)N[C@@H](Cc1c[nH]c2ccccc12)C(=O)N[C@@H](Cc1cnc[nH]1)C(=O)N[C@H](C(=O)N[C@@H](Cc1ccccc1)C(=O)NCC(=O)NCCOCC(=O)N[C@H](CCCCN)C(N)=O)[C@@H](C)O)C(C)C)C(C)(C)S | 100 to 1000 | 100 to 1000 | 1000 to 10000 | – |
| COc1ccc(C[C@H](NC(=O)[C@@H](NC(=O)[C@H](CCC(N)=O)NC(=O)[C@H](Cc2c[nH]c3ccccc23)NC(=O)[C@@H](NC(=O)[C@H](CCC(N)=O)NC(=O)[C@@H](NC(=O)CC(C)C)C(C)(C)S)[C@@H](C)O)C(C)(C)S)C(=O)N[C@@H](Cc2ccc3ccccc3c2)C(=O)N[C@@](C)(CCCCN)C(=O)N[C@@H](CCCCNC(C)=O)C(=O)N[C@@H](CC(N)=O)C(=O)NCC(N)=O)cc1 | 25 to 100 | 10 to 25 | 25 to 100 | – |
| CC(=O)N[C@H](C(=O)N[C@@H](CCC(N)=O)C(=O)N[C@H](C(=O)N[C@@H](Cc1c[nH]c2ccccc12)C(=O)N[C@@H](CCC(N)=O)C(=O)N[C@H](C(=O)N[C@@H](Cc1ccc(O)cc1)C(=O)N[C@@H](Cc1ccc2ccccc2c1)C(=O)N[C@@](C)(CCCCN)C(=O)N[C@@H](CCC(=O)O)C(=O)N[C@@H](CC(N)=O)C(=O)NCC(N)=O)C(C)(C)S)[C@@H](C)O)C(C)(C)S | 25 to 100 | < 10 | 100 to 1000 | 3 to 6 |
| CC(=O)N[C@@H](CS)C(=O)N[C@@H](C)C(=O)N[C@@H](CC(=O)O)C(=O)N[C@@H](Cc1c[nH]c2ccccc12)C(=O)N[C@H](C(=O)N[C@H](C(=O)N[C@@H](Cc1ccc(O)cc1)C(=O)N[C@@H](Cc1c[nH]c2ccccc12)C(=O)N[C@@H](Cc1cnc[nH]1)C(=O)N[C@H](C(=O)N[C@@H](Cc1ccccc1)C(=O)NCC(=O)NCCOCC(=O)N[C@H](CCCCN)C(N)=O)[C@@H](C)O)C(C)(C)S)C(C)C | > 30000 | 100 to 1000 | 1000 to 10000 | – |
| CC(=O)N[C@H](C(=O)N[C@@H](CN)C(=O)N[C@H](C(=O)N[C@@H](Cc1c[nH]c2ccccc12)C(=O)N[C@@H](CCC(N)=O)C(=O)N[C@H](C(=O)N[C@@H](Cc1ccc(OCCN)cc1)C(=O)N[C@@H](Cc1ccc2ccccc2c1)C(=O)N[C@@](C)(CCCCN)C(=O)N[C@@H](CCC(=O)O)C(=O)N[C@@H](CC(N)=O)C(=O)NCC(N)=O)C(C)(C)S)[C@@H](C)O)C(C)(C)S | < 10 | < 10 | 25 to 100 | – |

— ChEMBL document CHEMBL4417631, “Oral peptide inhibitors of interleukin-23 receptor and their use to treat inflammatory bowel diseases” (2017)
